Laboratory results: US8974801B2, “Long term sustained release pharmaceutical composition containing aqueous suspension of bisphosphonate” (priority 2006, dated 2015)

Conditions: female, Sprague-Dawley, rat, in vivo

With `NCCCC(O)(P(=O)(O)O)P(=O)(O)O` [Alendronate Calcium, alendronate calcium] as the compound, how does the “Total Net Bone Absorbed” value read?
The value was 770.
